The subject of assay [1] is TGF-β1 mRNA. As to the kind of experiment: TGF-β1 mRNA in human neonatal fibroblasts by RT-PCR. The class given is cell-based. The procedure: (§1) Human neonatal fibroblasts were seeded in 100 mm dishes at 1×10^6 cells/dish. […] In addition, cells were treated with two concentrations of Mannose 1-Phosphate (M1P) (100 and 200 μM) for 24 and 48 h. […] Each treatment was run in duplicates and repetitive analyses were performed.
(§2) The procedure used to transcribe the total RNA was described in detail previously (28). Briefly, the reaction was carried out in a total volume of 25 μl containing 1× reverse transcriptase buffer (50 mM Tris-HCl, pH 8.3, 75 mM KCl, 3 mM MgCl2), 10 mM DTT (Dithiothreitol), 2.5 mM each of dNTPs (Deoxynucleotides), 100 μg/ml of acetylated BSA, 4 units of rRNasin (ribonuclease inhibitor), 200 units of SuperScript™ RNase H^−Reverse Transcriptase, 0.1 μg of oligo (dT)12-18 and 1 μg of total RNA. Incubation was carried out for 1 h at 42° C. and was terminated by the addition of an equal volume of cold water.
(§3) A portion of the first strand cDNA reaction was used in PCR, which was carried out in 25 μl containing 16 mM Tris-HCl, pH 8.3, 50 mM KCl, 1.5 mM MgCl2, 0.01% gelatin, 200 μM of each dNTPs, 1 μM each sense and antisense oligonucleotides and 2.5 units of AmpliTaq DNA polymerase. Amplification was carried out for 35 cycles. Each cycle consisted of: denaturation 1 min at 95° C.; annealing at 55° C. (optimal for the pair of oligonucleotides used) for 2 min; and elongation at 72° C., 3 min. For the final cycle elongation was 7 min. Reaction products were separated by 2% agarose gel electrophoresis and were visualized by ethidium bromide staining. Sizes were determined using Q X 174 DNA/Hae III markers. Restriction digests were performed in order to confirm PCR product specificity. Densitometry was used for quantitative analysis of the ethidium bromide stained gels.

The next assay relates to M6P/IGF-II receptor mRNA. As to the kind of experiment: M6P/IGF-II receptor mRNA in human neonatal fibroblasts by RT-PCR. The class given is cell-based. The procedure:
as §1, §2, §3

Assay [2] relates to TGF-β1 activation. As to the kind of experiment: BAEC treated with retinoic acid, TGF-β1 in conditioned media by ELISA. The format is cell-based, bovine. As to conditions: for inhibitory effect on TGF-β1 activation, in words: 100 μM, BAEC treated with RA. The procedure: The procedures for preparation of conditioned media were described previously (22). Briefly, for the retinoid experiment, BAEC cells were grown to confluency in 35 mm dishes. The cultures were rinsed with PBS (Phosphate Buffered Saline), and incubated in 1 ml of serum-free DMEM containing 0.1% of BSA and retinoic acid (10 μM) or vehicle (0.5% ethanol). The incubation was carried out for 24 h. The medium was aspirated, the cells were washed with PBS and then incubated in 1 ml of DMEM/0.1% BSA for an additional 12 h to produce conditioned medium. Conditioned media were centrifuged and used in the ELISA assay for TGF-β1 evaluation.
Each measurement was performed in duplicates. […]
A general note: ELISA stands for enzyme-linked immunosorbent assay.

The subject of assay [3] is TGF-β1 activation. The experiment in a line: Co-culture of BAEC and BASMC, TGF-β1 in conditioned media by ELISA. The format is cell-based, bovine. The procedure:
For co-culture experiments, BAECs and BASMCs were seeded separately in 35 mm dishes at a density of 40×10^4 cells in DMEM/10% CS (Calf Serum) or 3.2×10^5 BAECs and 0.8×10^5 BASMCs in the same 35-mm dishes. After cell attachment (approximately 2 h) the cells were rinsed with PBS and incubated in 1 ml of DMEM/0.1% BSA for 6 h to produce conditioned media. Conditioned Media were centrifuged and used in the ELISA assay.
(§4) Each measurement was performed in duplicates.
Preliminary experiments were carried out with the aim to adopt the published co-culture system for screening anti-fibrotic agents.

Assay [4] relates to TGF-β1 activation. As to the kind of experiment: TGF-β1 activation by prostate adenocarcinoma cells (ELISA). The note with it: for % ACTIVE TGF-β1 (STD): Adenocarcinoma cells, M6P 100 μM, cystamine 100 μM, antibody 1:1500 dil. The class given is cell-based, human. The procedure:
as §4
(§5) It has been shown that cancer cells, such as human breast cancer, some melanoma cell lines and prostate adenocarcinoma cell lines, constitutively release biologically active TGF-β1 into the culture medium (24, 25, 29). Since the homotypic cell culture system would be of advantage due to its simplicity, an attempt was made to implement cancer cells as a method for TGF-β1 activation.

For assay [5], the system named is TGF-β1 mRNA. The experiment in a line: mRNA for TGF-β1 in macrophages by Northern blot. The format is cell-based, mouse. As to conditions: LPS alone or LPS with M6P or DCA, FIG. 2. The procedure: The cells were washed with PBS, followed by addition of the extraction buffer provided with the kit (RNeasy RNA extraction kit). The lysed cells were scraped from the dish and collected in microtubes. Samples were either frozen at −70° C. before analysis or directly assessed following manufacturer protocol. Absorbance at 260 nm and 280 nm was measured and the integrity of RNA was evaluated by denaturing formaldehyde agarose gels stained with ethidium bromide.
Northern blot analysis was carried out as described previously (27). Briefly, total RNA samples (5 μg) were diluted in formaldehyde-MOPS buffer and subjected to electrophoresis in a denaturing 1.2% Sea Kem GTG agarose gel along with the RNA size markers. RNA was transferred to a nitrocellulose membrane by capillary transfer. The blots were prehybridized for 3 h at 42° C. in a solution containing 10% dextran sulfate, 2×Denhardt's solution, 50% formamide, 5×SSPE (0.75 M Sodium chloride, 0.05 M sodium phosphate, 0.005 M ethylenediaminetetraacetic acid)/0.1% SDS, and 250 μg/ml of sheared salmon testis DNA. Hybridization solution was essentially the same except that ^32P dCTP-labeled DNA probe and 150 μg/ml of salmon testis DNA were included. The hybridization was carried out for 16 h at 42° C. […]

For assay [6], the system named is TGF-β1 activation. As to the kind of experiment: TGF-β1 activation by Bowes melanoma cells (ELISA). The class given is cell-based, human. The procedure:
as §4, §5

The subject of assay [7] is TGF-β receptor type I mRNA. The experiment in a line: TGF-β receptor type I mRNA in human neonatal fibroblasts by RT-PCR. The format is cell-based. The note with it: M6P, time course of treatment (24 and 48 h). The procedure: as §1, §2
A portion of the first strand cDNA reaction was used in PCR, which was carried out in 25 μl containing 16 mM Tris-HCl, pH 8.3, 50 mM KCl, 1.5 mM MgCl2, 0.01% gelatin, 200 μM of each dNTPs, 1 μM each sense and antisense oligonucleotides and 2.5 units of AmpliTaq DNA polymerase. Amplification was carried out for 35 cycles. […] Sizes were determined using Q X 174 DNA/Hae III markers. […] Densitometry was used for quantitative analysis of the ethidium bromide stained gels.

A further assay concerns M6P/IGF-II receptors. As to the kind of experiment: M6P/IGF-II receptor levels within wounds treated with M6P. The format is in vivo. As to conditions: 3 days post-wounding.
Assay [8] has as its system TGF-β1 activation. As to the kind of experiment: TGF-β1 activation by HMB-2 melanoma cells (ELISA). The format is cell-based, human. The procedure: as §4, §5
For assay [9], the system named is TGF-β1 activation. The experiment in a line: Macrophage activation assay (IC-21 macrophages, LPS, fetal fibroblast conditioned media, ELISA). The class given is cell-based, mouse. As to conditions: 50 μM M6P + 100 μM putrescine or cystamine. The procedure:
Cultured macrophages were lifted from the dish with 3 ml of PBS. The PBS was balanced with 15 ml of RPMI-1640 containing 10% FBS. The cells were counted and then seeded in 100 mm plates at 1×10^6 cells/dish. When the cultured macrophages reached approximately 70% confluency (2-3 days) they were washed with PBS and RPMI-1640 medium containing 5% FBS and 10 ng/ml LPS was applied (FIG. 1). After 24 h of activation with LPS the cells were washed gently with PBS. At this point conditioned medium from confluent fetal dermal fibroblasts was collected and 5 ml was distributed into each dish containing macrophages. The cells were incubated for an additional 24 h, the media were collected, spun down at 600×g for 10 min and stored at 4° C. before TGF-β1 evaluation by ELISA. Each condition was done in duplicate. The cells, washed with PBS, were harvested for total RNA extraction.
Fetal dermal fibroblasts were seeded in 100 mm dishes at 1×10^6 cell/dish. The cells were grown to confluency (2-3 days). The cultures were washed with PBS and fresh medium, either DMEM supplemented with 10% FBS or AIM-V medium (a serum free medium) for serum-free conditions, was applied for 24 h (FIG. 1). The medium was collected and combined in order to obtain a homogenous pool of latent TGF-β1. The collection of the medium was done just prior to application in the macrophage assay.
as §4

[10] abbreviates: BAEC + RA (10 μM) + test agent 100 μM.
Setting [11] is: BAEC + RA (10 μM), conditioned medium.

As to `O=P(O)(O)O[C@H]1O[C@H](CO)[C@@H](O)[C@H](O)[C@@H]1O` [M1P, alpha-D(+)mannose 1-phosphate], in the assay with TGF-β1 mRNA [1] (100 and 200 μM), the “effect on TGF-β1 mRNA level, in words” value is “no effects”. For the same compound, the “effect on M6P/IGF-II receptor mRNA level, in words” value in the assay on M6P/IGF-II receptor mRNA (100 and 200 μM) is “no effects”. In addition, the “inhibitory effect on TGF-β1 activation, in words” value in the assay with TGF-β1 activation [2] is “no significant inhibitory effects”. Moreover, in the assay with TGF-β1 activation [2] (setting [10]), the “% Active” value came to 7.6%, the “Active TGF-β1” value was 280 pg/mL and the “Total TGF-β1” value was found to be 3686 pg/mL.

Turning to `O=C[C@@H](O)[C@@H](O)[C@H](O)[C@H](O)COP(=O)(O)O` [M6P, D-mannose 6-phosphate], the “inhibition of TGF-β1 activation, in words” value in the assay with TGF-β1 activation [3] (100 μM) is “did not significantly inhibit”. Further, the “% Active” value was 7.5% in the assay with TGF-β1 activation [3] (Co-culture + M6P 100 μM) and 8.1% in the assay on TGF-β1 activation [2] (setting [10]). Further, the “Active TGF-β1” value in the assay on TGF-β1 activation [3] (Co-culture + M6P 100 μM) turned out to be 58 pg/mL; in the assay with TGF-β1 activation [2] (setting [10]), 287 pg/mL. Moreover, the “Total TGF-β1” value in the assay with TGF-β1 activation [3] (Co-culture + M6P 100 μM) was 770 pg/mL; in the assay on TGF-β1 activation [2] (setting [10]) it was 3544 pg/mL. The “expression of TGF-β1 cDNA (RT-PCR)” value amounted to 80.9 in the assay with TGF-β1 mRNA [1] (M6P 1 μM, 24 h); 86.3 in the assay with TGF-β1 mRNA [1] (M6P 1 μM, 48 h); 116.2 in the assay with TGF-β1 mRNA [1] (M6P 10 μM, 24 h); 78.8 in the assay with TGF-β1 mRNA [1] (M6P 10 μM, 48 h); 119.3 with TGF-β1 mRNA [1] (M6P 50 μM, 24 h); 75 in the assay with TGF-β1 mRNA [1] (M6P 50 μM, 48 h). Besides, the “expression of TGF-β1 cDNA (RT-PCR)” value in the assay with TGF-β1 mRNA [1] (M6P 100 μM, 24 h) came to 95.6; in the assay with TGF-β1 mRNA [1] (M6P 200 μM, 24 h), 62.5; in the assay with TGF-β1 mRNA [1] (M6P 200 μM, 48 h), 28.8. Moreover, the “% ACTIVE TGF-β1 (STD)” value in the assay on TGF-β1 activation [4] is on record as 91.8%; in the assay on TGF-β1 activation [6] (BOWES, M6P 100 μM, DCA 100 μM, antibody 1:1500 dil), 113.5%; in the assay with TGF-β1 activation [8] (HMB-2, M6P 100 μM, DCA 100 μM, antibody 1:1500 dil), 108.4%. Moreover, the “effect on TGF-β1 activation, in words” value in the assay on TGF-β1 activation [4] (prostate cancer cells), with TGF-β1 activation [6] (melanoma cells (Bowes)) and in the assay on TGF-β1 activation [8] (melanoma cells (HMB-2)) was “no effect” each time. The “expression of mRNA for M6P/IGF-II receptor, in words” value with M6P/IGF-II receptor mRNA (1-100 μM, 24 h) is “not affected”; in the assay on M6P/IGF-II receptor mRNA (50-200 μM, 48 h), “decrease”. Besides, the “levels of mRNA for TGF-β1, in words” value in the assay on TGF-β1 mRNA [5] is given as “remained the same”. Also, the “level of TGF-β receptor type I mRNA, in words” value in assay [7] is “unchanged”. In the assay with M6P/IGF-II receptors, the “levels of the M6P/IGF-II receptors within the wounds, in words” value is “downregulated”. Further, the “inhibitory effect on TGF-β1 activation, in words” value with TGF-β1 activation [2] is “no significant inhibitory effects”.

On to `CC1=C(/C=C/C(C)=C/C=C/C(C)=C/C(=O)O)C(C)(C)CCC1` [RA, all-trans retinoic acid], for which the “% Active” value with TGF-β1 activation [2] (BAEC + RA (10 μM)) is recorded as 10.3%. In the assay with TGF-β1 activation [2] (setting [11]), the “Active TGF-β1” value was 276 pg/mL and the “Total TGF-β1” value amounted to 2667 pg/mL.

For the compound `NCCSSCCN` [Cystamine, cystamine], in the assay on TGF-β1 activation [4], the “% ACTIVE TGF-β1 (STD)” value came to 91.1%. The “active TGF-β1, % Control (STD)” value in the assay with TGF-β1 activation [9] is given as “did not show additive effect”.

These data come from patent US6750028B1, “Anti-fibrotic agent assay” (Ethicon, Inc, priority 1996, dated 2004).
